Data published in publication PMC6222422, “Synthesis and Biological Evaluation of Novel Indole-Derived Thioureas” (Molecules : A Journal of Synthetic Chemistry and Natural …, 2018).
In brackets after ≈: the same amount, converted by molar mass. Like-named read-outs stand apart in the source and are kept apart here.

Columns and labels:
[1] = test system: S. aureus NCTC 4163; assay: MIC, twofold serial agar dilution; assay type: cell-based; details: Staphylococcus aureus, NCTC4163, 18 h, 35 °C, read-out: minimal inhibitory concentrations (MIC)
[2] = test system: S. aureus ATCC 25923; assay: MIC, twofold serial agar dilution; assay type: cell-based; details: Staphylococcus aureus, ATCC25923, 18 h, 35 °C, read-out: minimal inhibitory concentrations (MIC)
[3] = test system: S. aureus ATCC 6538; assay: MIC, twofold serial agar dilution; assay type: cell-based; details: Staphylococcus aureus, ATCC6538, 18 h, 35 °C, read-out: minimal inhibitory concentrations (MIC)
[4] = test system: S. aureus ATCC 29213; assay: MIC, twofold serial agar dilution; assay type: cell-based; details: Staphylococcus aureus, ATCC29213, 18 h, 35 °C, read-out: minimal inhibitory concentrations (MIC)
[5] = test system: S. epidermidis ATCC 12228; assay: MIC, twofold serial agar dilution; assay type: cell-based; details: Staphylococcus epidermidis, ATCC12228, 18 h, 35 °C, read-out: minimal inhibitory concentrations (MIC)
[6] = test system: B. subtilis ATCC 6633; assay: MIC, twofold serial agar dilution; assay type: cell-based; details: Bacillus subtilis, ATCC6633, 18 h, 35 °C, read-out: minimal inhibitory concentrations (MIC)
[7] = test system: B. cereus ATCC 11778; assay: MIC, twofold serial agar dilution; assay type: cell-based; details: Bacillus cereus, ATCC11778, 18 h, 35 °C, read-out: minimal inhibitory concentrations (MIC)
[8] = test system: M. luteus ATCC 9341; assay: MIC, twofold serial agar dilution; assay type: cell-based; details: Micrococcus luteus, ATCC9341, 18 h, 35 °C, read-out: minimal inhibitory concentrations (MIC)
[9] = test system: M. luteus ATCC 10240; assay: MIC, twofold serial agar dilution; assay type: cell-based; details: Micrococcus luteus, ATCC10240, 18 h, 35 °C, read-out: minimal inhibitory concentrations (MIC)
[10] = test system: S. aureus NCTC 4163; assay: disc diffusion method; assay type: cell-based, Staphylococcus aureus; details: 5 µg/9 mm disc
[11] = test system: S. aureus ATCC 25923; assay: disc diffusion method; assay type: cell-based, Staphylococcus aureus; details: 5 µg/9 mm disc
[12] = test system: S. aureus ATCC 6538; assay: disc diffusion method; assay type: cell-based, Staphylococcus aureus; details: 5 µg/9 mm disc
[13] = test system: S. aureus ATCC 29213; assay: disc diffusion method; assay type: cell-based, Staphylococcus aureus; details: 5 µg/9 mm disc
[14] = test system: S. epidermidis ATCC 12228; assay: disc diffusion method; assay type: cell-based, Staphylococcus epidermidis; details: 5 µg/9 mm disc
[15] = test system: B. subtilis ATCC 6633; assay: disc diffusion method; assay type: cell-based, Bacillus subtilis; details: 5 µg/9 mm disc
[16] = test system: B. cereus ATCC 11778; assay: disc diffusion method; assay type: cell-based, Bacillus cereus; details: 5 µg/9 mm disc
[17] = test system: M. luteus ATCC 9341; assay: disc diffusion method; assay type: cell-based, Micrococcus luteus; details: 5 µg/9 mm disc
[18] = test system: M. luteus ATCC 10240; assay: disc diffusion method; assay type: cell-based, Micrococcus luteus; details: 5 µg/9 mm disc
[19] = molecular target: S. aureus topoisomerase IV (Staphylococcus aureus, UniProt P0C1S7+P0C1U9); details: at 32 µg/mL
[20] = test system: hospital methicillin-susceptible strains of S. aureus (MSSA); assay: MIC against hospital strains; details: Staphylococcus aureus
[21] = test system: methicillin-resistant strains of S. aureus (MRSA); assay: MIC against hospital strains; details: Staphylococcus aureus
[22] = test system: S. epidermidis (MRSE); assay: MIC against hospital strains; details: Staphylococcus epidermidis
[23] = test system: BVDV; assay: microbe, parasite or virus in culture; assay type: cell-based, bovine viral diarrhoea virus; details: for EC50: Bovine viral diarrhea virus isolates and strains, MDBK, in Bos taurus, read-out: BVDV EC50
[24] = test system: YFV; assay: microbe, parasite or virus in culture; assay type: cell-based; details: Yellow fever virus, BHK, read-out: YFV EC50
[25] = test system: CV-B5; assay: microbe, parasite or virus in culture; assay type: cell-based, coxsackievirus B5; details: Enterovirus B, CVB5, Vero 76, read-out: CV-B5 EC50
[26] = test system: Sb-1; assay: microbe, parasite or virus in culture; assay type: cell-based, poliovirus type-1; details: Enterovirus C, Vero 76, read-out: Sb-1 EC50
[27] = test system: Reo-1; assay: microbe, parasite or virus in culture; assay type: cell-based, reovirus type-1; details: Reovirus sp., BHK, read-out: Reo-1 EC50
[28] = test system: RSV; assay: microbe, parasite or virus in culture; assay type: cell-based, human respiratory syncytial virus; details: human respiratory syncytial virus, Vero 76, read-out: RSV EC50
[29] = test system: VSV; assay: microbe, parasite or virus in culture; assay type: cell-based; details: Vesicular stomatitis virus, Vero 76, read-out: VSV EC50
[30] = test system: VV; assay: microbe, parasite or virus in culture; assay type: cell-based; details: Orthopoxvirus vaccinia, Vero 76, read-out: VV EC50
[31] = test system: HSV-1; assay: microbe, parasite or virus in culture; assay type: cell-based, human herpes 1; details: Human alphaherpesvirus 1, Vero 76, read-out: HSV-1 EC50
[32] = test system: MDBK cells
[33] = test system: BHK cells; details: Syrian hamster (Mesocricetus auratus)
[34] = in vitro; details: human
[35] = in vitro; details: cattle (Bos taurus)
[36] = in vitro; details: Syrian hamster (Mesocricetus auratus)
[37] = in vitro; details: African green monkey (Cercopithecus aethiops)
[38] = test system: HIV-1; assay: microbe, parasite or virus in culture
[39] = test system: HIV-1 N119 (Y181C mutant); assay: microbe, parasite or virus in culture; assay type: cell-based, Human Immunodeficiency Virus type-1; details: Human immunodeficiency virus 1, MT4, read-out: EC50 N119
[40] = test system: HIV-1 A17 (K103N + Y181C mutant); assay: microbe, parasite or virus in culture; assay type: cell-based, Human Immunodeficiency Virus type-1
[41] = test system: HIV-1 EFV^R (K103R + V179D + P225H mutant); assay: microbe, parasite or virus in culture; assay type: cell-based, Human Immunodeficiency Virus type-1; details: Human immunodeficiency virus 1, MT4, 96 h, read-out: EC50 EFV^R
[42] = test system: HIV-1 AZT^R strain (67N, 70R, 215F, 219Q); assay: microbe, parasite or virus in culture; assay type: cell-based, Human Immunodeficiency Virus type-1
[43] = test system: HIV-1 MDR strain (74V, 41L, 106A, 215Y); assay: microbe, parasite or virus in culture; assay type: cell-based, Human Immunodeficiency Virus type-1
[44] = Human immunodeficiency virus 1, MT4, read-out: HIV-1 EC50

S. aureus topoisomerase IV, sequence (P0C1U9 whole entry): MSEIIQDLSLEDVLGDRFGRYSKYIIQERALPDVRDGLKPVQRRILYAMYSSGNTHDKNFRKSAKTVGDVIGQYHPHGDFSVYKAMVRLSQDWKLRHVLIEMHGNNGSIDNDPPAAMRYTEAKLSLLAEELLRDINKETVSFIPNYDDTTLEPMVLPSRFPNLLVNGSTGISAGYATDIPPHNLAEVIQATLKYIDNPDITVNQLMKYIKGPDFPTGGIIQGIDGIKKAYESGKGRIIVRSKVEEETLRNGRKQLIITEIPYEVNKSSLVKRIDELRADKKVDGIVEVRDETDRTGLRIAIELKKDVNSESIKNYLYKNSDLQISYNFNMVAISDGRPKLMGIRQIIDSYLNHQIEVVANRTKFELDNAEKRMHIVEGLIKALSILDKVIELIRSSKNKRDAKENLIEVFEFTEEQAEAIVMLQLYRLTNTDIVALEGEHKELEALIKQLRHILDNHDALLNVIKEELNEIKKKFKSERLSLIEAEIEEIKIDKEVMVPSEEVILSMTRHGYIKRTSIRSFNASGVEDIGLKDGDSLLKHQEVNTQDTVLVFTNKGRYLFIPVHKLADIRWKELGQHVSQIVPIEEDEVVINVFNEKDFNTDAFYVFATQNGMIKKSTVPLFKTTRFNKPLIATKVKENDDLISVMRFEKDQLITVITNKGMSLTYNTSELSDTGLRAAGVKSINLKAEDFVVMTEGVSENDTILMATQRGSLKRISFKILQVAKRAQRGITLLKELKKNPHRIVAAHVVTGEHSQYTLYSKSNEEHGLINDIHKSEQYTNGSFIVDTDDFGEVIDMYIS
S. aureus topoisomerase IV, sequence (P0C1S7 whole entry): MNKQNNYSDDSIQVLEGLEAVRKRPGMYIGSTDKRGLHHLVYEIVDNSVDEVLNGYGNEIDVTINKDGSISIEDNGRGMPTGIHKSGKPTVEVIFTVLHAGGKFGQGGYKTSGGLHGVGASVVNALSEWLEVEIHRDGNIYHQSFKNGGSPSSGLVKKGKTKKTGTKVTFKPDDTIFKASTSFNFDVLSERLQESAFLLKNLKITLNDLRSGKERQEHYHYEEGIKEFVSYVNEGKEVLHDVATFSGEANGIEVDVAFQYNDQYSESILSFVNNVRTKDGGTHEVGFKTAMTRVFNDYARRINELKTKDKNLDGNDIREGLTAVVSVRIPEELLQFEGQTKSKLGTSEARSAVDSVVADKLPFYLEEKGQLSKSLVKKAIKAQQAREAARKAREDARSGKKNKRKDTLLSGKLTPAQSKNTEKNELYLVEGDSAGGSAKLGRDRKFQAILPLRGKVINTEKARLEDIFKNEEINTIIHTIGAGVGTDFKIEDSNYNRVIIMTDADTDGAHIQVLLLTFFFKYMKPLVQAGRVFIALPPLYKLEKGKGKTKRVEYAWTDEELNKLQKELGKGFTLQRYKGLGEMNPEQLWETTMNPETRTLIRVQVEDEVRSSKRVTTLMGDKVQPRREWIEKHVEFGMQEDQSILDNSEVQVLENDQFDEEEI

O=C(O)c1cn(C2CC2)c2cc(N3CCNCC3)c(F)cc2c1=O [Ciprofloxacin, reference compound]
MIC [1]: 0.25 µg/mL (≈ 0.754 µM) | MIC [2]: 0.5 µg/mL (≈ 1.51 µM) | MIC [3]: 0.25 µg/mL (≈ 0.754 µM) | MIC [4]: 0.5 µg/mL (≈ 1.51 µM) | MIC [5]: 0.25 µg/mL (≈ 0.754 µM) | MIC [6]: < 0.12 µg/mL | MIC [7]: 0.25 µg/mL (≈ 0.754 µM) | MIC [8]: 0.25 µg/mL (≈ 0.754 µM) | MIC [9]: 1 µg/mL (≈ 3.02 µM) | diameter of growth inhibitory zone (GIZ) [10]: 26 mm | diameter of growth inhibitory zone (GIZ) [11]: 26 mm | diameter of growth inhibitory zone (GIZ) [12]: 28 mm | diameter of growth inhibitory zone (GIZ) [13]: 22 mm | diameter of growth inhibitory zone (GIZ) [14]: 30 mm | diameter of growth inhibitory zone (GIZ) [15]: 38 mm | diameter of growth inhibitory zone (GIZ) [16]: 26 mm | diameter of growth inhibitory zone (GIZ) [17]: 26 mm | diameter of growth inhibitory zone (GIZ) [18]: 25 mm | inhibition of decatenation activity of S. aureus topoisomerase IV [19]: almost completely inhibited | MIC ([20]; hospital S. aureus MSSA strain 440/11): 0.4 µg/mL (≈ 1.21 µM) | MIC ([20]; hospital S. aureus MSSA strain 441/11): 0.4 µg/mL (≈ 1.21 µM) | MIC ([20]; hospital S. aureus MSSA strain 442/11): 0.4 µg/mL (≈ 1.21 µM) | MIC ([20]; hospital S. aureus MSSA strain 443/11): 0.4 µg/mL (≈ 1.21 µM) | MIC ([20]; hospital S. aureus MSSA strain 444/11): 0.8 µg/mL (≈ 2.41 µM) | MIC ([20]; hospital S. aureus MSSA strain 445/11): 0.4 µg/mL (≈ 1.21 µM) | MIC ([20]; hospital S. aureus MSSA strain 446/11): 0.4 µg/mL (≈ 1.21 µM) | MIC ([20]; hospital S. aureus MSSA strain 447/11): 0.8 µg/mL (≈ 2.41 µM) | MIC ([20]; hospital S. aureus MSSA strain 448/11): 0.8 µg/mL (≈ 2.41 µM) | MIC ([20]; hospital S. aureus MSSA strain 449/11): 0.4 µg/mL (≈ 1.21 µM) | MIC ([21]; hospital S. aureus MRSA strain 389/10): 25 µg/mL (≈ 75.4 µM) | MIC ([21]; hospital S. aureus MRSA strain 390/10): 100 µg/mL (≈ 302 µM) | MIC ([21]; hospital S. aureus MRSA strain 391/10): 100 µg/mL (≈ 302 µM) | MIC ([21]; hospital S. aureus MRSA strain 392/10): 100 µg/mL (≈ 302 µM) | MIC ([21]; hospital S. aureus MRSA strain 393/10): 50 µg/mL (≈ 151 µM) | MIC ([21]; hospital S. aureus MRSA strain 394/10): 25 µg/mL (≈ 75.4 µM) | MIC ([21]; hospital S. aureus MRSA strain 399/10): 200 µg/mL (≈ 604 µM) | MIC ([21]; hospital S. aureus MRSA strain 450/11): 100 µg/mL (≈ 302 µM) | MIC ([21]; hospital S. aureus MRSA strain 451/11): 100 µg/mL (≈ 302 µM) | MIC ([21]; hospital S. aureus MRSA strain 452/11): 200 µg/mL (≈ 604 µM) | MIC [22]: 6.25 µg/mL (≈ 18.9 µM) | MIC ([22]; hospital S. epidermidis MRSE strain 430/11): 0.8 µg/mL (≈ 2.41 µM) | MIC ([22]; hospital S. epidermidis MRSE strain 432/11): 50 µg/mL (≈ 151 µM) | MIC ([22]; hospital S. epidermidis MRSE strain 433/11): 50 µg/mL (≈ 151 µM) | MIC ([22]; hospital S. epidermidis MRSE strain 434/11): 50 µg/mL (≈ 151 µM) | MIC ([22]; hospital S. epidermidis MRSE strain 435/11): 0.4 µg/mL (≈ 1.21 µM) | MIC ([22]; hospital S. epidermidis MRSE strain 436/11): 0.4 µg/mL (≈ 1.21 µM) | MIC ([22]; hospital S. epidermidis MRSE strain 437/11): 0.8 µg/mL (≈ 2.41 µM) | MIC ([22]; hospital S. epidermidis MRSE strain 438/11): 0.4 µg/mL (≈ 1.21 µM) | MIC ([22]; hospital S. epidermidis MRSE strain 439/11): 50 µg/mL (≈ 151 µM)

CCOC(=O)NC(=S)NCCc1c[nH]c2ccccc12 [Compound 20, 1-(2-(1H-Indol-3-yl)ethyl)-3-ethoxycarbonylthiourea]
activity against BVDV (in words) [23]: showed activity | EC50 [23]: 35 ± 2.8 µM | EC50 [24]: > 100 µM | EC50 [25]: > 100 µM | EC50 [26]: > 100 µM | EC50 [27]: > 100 µM | EC50 [28]: > 100 µM | EC50 [29]: > 100 µM | EC50 [30]: > 100 µM | EC50 [31]: > 100 µM | cytotoxicity for MDBK cell lines (in words) [32]: lack of cytotoxicity | CC50 [33]: > 100 µM | CC50 [34]: > 100 µM | CC50 [35]: > 100 µM | CC50 [36]: > 100 µM | CC50 [37]: > 100 µM | EC50 [38, 44]: > 100 µM

S=C(NCCc1c[nH]c2ccccc12)Nc1ccc(Br)cc1 [Compound 8, 1-(2-(1H-Indol-3-yl)ethyl)-3-(4-bromophenyl)thiourea]
EC50 [23]: > 52 µM | EC50 [24]: > 10 µM | EC50 [25]: > 13 µM | EC50 [26]: > 13 µM | EC50 [27]: > 10 µM | EC50 [28]: > 13 µM | EC50 [29]: > 13 µM | EC50 [30]: > 13 µM | EC50 [31]: > 13 µM | EC50 [39]: > 45 µM | activity against A17 strain compared with wild type (in words) [40]: comparable with those of HIV-1 wild-type | EC50 ([40]; Human immunodeficiency virus 1, MT4, 96 h, read-out: EC50 A17): 12 ± 1.5 µM | EC50 [41]: > 45 µM | activity against AZT^R strain compared with wild type (in words) [42]: comparable with those of HIV-1 wild-type | EC50 ([42]; Human immunodeficiency virus 1, MT4, read-out: EC50 AZT^R): 9 ± 1 µM | activity against MDR strain compared with wild type (in words) [43]: comparable with those of HIV-1 wild-type | EC50 ([43]; Human immunodeficiency virus 1, MT4, read-out: EC50 MDR): 9 ± 0.8 µM | melting point: 156 to 158 °C | CC50 [34]: 45 µM | CC50 [35]: 52 µM | CC50 [36]: 10 µM | CC50 [37]: 13 µM | EC50 ([38]; Human immunodeficiency virus 1, MT4, read-out: EC50 HIV-1): 8.7 ± 0.8 µM | EC50 [38, 44]: 8.7 ± 0.4 µM
